In one series the test system is SUM-149. Kind of series: Cytotoxicity of EP probes via CTG assay. In kind it is cell-based, human. Conditions: Homo sapiens, SUM149, 72 hr.
The subject of series [1] is SUM-149 cells. The experiment in a line: Cell viability assay (CellTiter-Glo or PI staining). In kind it is cell-based, human. Conditions: for EC50: Homo sapiens, read-out: EC50, SUM-149 cell viability.
Method: (§2) Different concentrations of GLE-extracted bioactive chemical components were tested for 72-h treatment periods.
Either 1×10^3-4.8×10^3 or 4×10^2-1.2×10^3 cells were seeded to each well of 96- or 384-well white polystyrene flat-bottomed plates (3610 or 8804BC, Corning) in 100 μL or 30 μL media per well, respectively. The concentrations used were experimentally determined to ensure logarithmic growth during the duration of the experiment and prevent adverse effects on cell growth by DMSO exposure. The plates were incubated at 37° C. in 5% CO2 for 24 h before treatment. Stock solutions of test compounds (10 mM in DMSO) in nine 3-fold serial dilutions were dispensed via pintool (Biomek). The final concentration of DMSO was 0.3% (v/v) in each well. The plates were incubated for 72 h at 37° C. in 5% CO2 and then quenched with CellTiter-Glo® reagent (50 μL/well in 96-well plate, 30 μL/well in 384-well plate) at RT. The positive controls included staurosporine (10 μM), gambogic acid (10 μM), and a toxic quinoline generated in-house. Plates were then incubated at RT for 20 min and centrifuged at 1000 rpm for 1 min. The cytotoxicity assay was performed by using the CellTiterGlo Luminescent Cell Viability Assay kit (G7570, Promega, Madison, WI) according to the manufacturer's instructions. Luminescence was recorded in an Envision plate reader (Perkin Elmer).
(§3) For the CTG assay, 3 or 4 replicate assays were conducted for each experimental condition, and a minimum of 3 independent experiments were conducted for cellular assays. The mean luminescence of each experimental treatment group was normalized as a percentage of the mean intensity of untreated controls. EC50 values (μM) were calculated by Pipeline Pilot Software (Accelrys, Enterprise Platform, CA, USA). EC50 values (μM) from the viability assay were calculated from dose response curve-fitting via non-linear regression by using GraphPad Prism (Version 7.0 San Diego, CA).
The subject of the next series is MDA-MB-231 TNBC cells. The description is as above. In kind it is cell-based. Conditions: Homo sapiens, MDA-MB-231, read-out: EC50, MDA-MB-231 cell viability; FIG. 4E.
In series [2] the test system is SUM-149 cells. The experiment in a line: Cell cycle assay. The class given is cell-based, human. Conditions: EP 20 μM, 48 h. The protocol:
SUM-149 cells were treated for 48 h with EP, then collected and washed in 1×PBS. The cells (5×10^5) were fixed and permeabilized in 70% ethanol at −20° C. until further analysis. To measure the DNA content, the cells were washed and resuspended in 150 μL of PBS buffer then incubated in 100 μL of 100 μg/mL RNase A (MilliporeSigma, Burlington, MA) for 15 min at RT, then 250 μL of 50 μg/mL Propidium Iodide (MilliporeSigma) was added. Samples were incubated at RT for 10 min and analyzed on a BD FACS Canto II flow cytometer (BD Biosciences, San José, Calif.). Data were analyzed by using FlowJo software (V10, FlowJo LLC, Ashland, OR).

Series [3] relates to SUM-149 cells. The experiment in a line: Annexin V apoptosis detection. In kind it is cell-based, human. As to conditions: 20 μM, 48 h. On the procedure: (§1) Cells commonly fail to bypass the G1 phase of the cycle due to mutations or DNA damage, which can result in apoptosis. […] In addition, caspase 3/7 activity assays were performed as an alternate method of apoptosis detection.
SUM-149 cells (5×10^5) were seeded and treated either with vehicle (0.1% DMSO) or with 20 μM of EP or with puromycin (200 ng/mL) as positive control for 48 h. After treatment floating cells were collected, and all cells were harvested and counted. Treated cells were analyzed for cell death by using the FITC Annexin-V/7AAD Apoptosis detection kit (product #640922, Biolegend, San Diego, CA) according to the manufacturer's instructions. Briefly, cells were resuspended in Annexin Binding Buffer, stained with Annexin V-FITC and/or 7-AAD, and incubated for 30 min at 4° C. Data were acquired on a BD FACS Canto II cytometer (BD Biosciences, San José, Calif.) and analyzed by using FlowJo software (V10, FlowJo LLC, Ashland, OR).

Series [4] deals with SUM-149 cells. Kind of series: Colony formation assay. As to conditions: 72 h treatment, 10 d culture. In kind it is cell-based, human. The protocol:
as §1
SUM-149 cells (1.5×10^6 cells/well) were plated on a 6-well plate. Two days later, cell media was changed to 5% FBS, and cells were incubated at 37° C. in a 5% CO2 atmosphere for 1 h before vehicle (0.1% DMSO) or EP (5-40 μM) was added. After 72 h of treatment, cells were trypsinized and reseeded at 200 cells/mL per well in 24-well plates. After 10 d of culture, colonies were visualized by crystal violet staining, and the colony numbers were counted under a microscope.

Series [5] has as its system MDA-MB-231 breast cancer cells. Kind of series: De novo in-cell protein synthesis (click assay). The class given is cell-based, human. Conditions: 2 h treatment; EP 20 μM. On the procedure:
First, 2.5×10^4 cells/well were seeded in 8-well μ-slides (Ibidi®, #80826) and incubated at 37° C. for 12 h. The cells were treated with vehicle, compounds Ganoderic acid A or EP, or cycloheximide (positive control) for 2 h to determine protein synthesis as nascent proteins generated using Biovision's EZClick™ Global Protein Synthesis Assay Kit, (#K715-100, Milpitas, CA). The assay includes a robust chemical method based on an alkyne containing o-propargyl-puromycin (OP-puro) probe, which stops translation by forming covalent conjugates with nascent polypeptide chains. Truncated polypeptides are rapidly turned over by the proteasome and can be detected based on the subsequent click reaction with a fluorescent azide. The reaction was conducted according to the manufacturer's protocol. Cells were imaged at 20× with a Nikon C2 scanning confocal microscope, and the whole image montage was quantified by using Gen5 Software and Lionheart™ FX Automated Microscope (BioTek, Winooski, VT).

Another series concerns MDA-MB-231 cells. The experiment in a line: Reactive oxygen species (ROS) measurement, CellROX. In kind it is cell-based, human. Conditions: EP 20 μM, vs vehicle.
Series [6] has as its system SUM-149 cells. The experiment in a line: Reactive oxygen species (ROS) measurement, CellROX. In kind it is cell-based, human.
The next series can be described thus: Solubility observations. The class given is physicochemical. On the procedure:
One of the liabilities with EP is sharing its core with cholesterol, an amphipathic molecule with part-water soluble, part-water insoluble character. Thus, while able to readily cross the cell membrane, the ability to deliver the pure compound faces challenges. EP's solubility properties are poor in DMSO or water unless warmed up to 30° C. However, in this report, EP's derivative, EP sulfonamide, was soluble at 10 mM in DMSO. Thus, the generation of a selective anti-cancer compound with greater potency than EP, and ample therapeutic window when compared to BJ normal cells, was accomplished.

The nature of series [7]: Incubation with NAC monitored by NMR and LC-MS. In kind it is physicochemical. Conditions: DMSO, 24 h, 37° C. The protocol:
Live-cell CellROX® assays for oxidative stress detection were conducted to evaluate whether GA-01, ergosterol, 5-6-dihydroergosterol and EP trigger intrinsic apoptosis pathways by inducing ROS. […] Menadione or t-Butyl hydrogen peroxide (TBHP) were positive controls (FIGS. 7 and S5) and co-treated with N-acetyl cysteine (NAC) to confirm that the signal was due to ROS formation induced by the compound. […] Furthermore, the possibility of the endoperoxide motif to react with NAC, was assessed EP was incubated with NAC in DMSO for 24 h at 37° C. […] Thus, the ability of EP to induce ROS could potentially be via a different mechanism from that of TBHP in MCF-7 cells.

In general, EC50 refers to the midpoint of the concentration-response curve.

Molecules are shown by their SMILES. Where two headings read alike, the source gives them in different places.

Method for MDA-MB-231 TNBC cells: as §2
Either 1×10^3-4.8×10^3 or 4×10^2-1.2×10^3 cells were seeded to each well of 96- or 384-well white polystyrene flat-bottomed plates (3610 or 8804BC, Corning) in 100 μL or 30 μL media per well, respectively. The concentrations used were experimentally determined to ensure logarithmic growth during the duration of the experiment and prevent adverse effects on cell growth by DMSO exposure. The plates were incubated at 37° C. in 5% CO2 for 24 h before treatment. Stock solutions of test compounds (10 mM in DMSO) in nine 3-fold serial dilutions were dispensed via pintool (Biomek). The final concentration of DMSO was 0.3% (v/v) in each well. […] Luminescence was recorded in an Envision plate reader (Perkin Elmer).
as §3

With `CC(C)[C@@H](C)/C=C/[C@@H](C)[C@H]1CC[C@@H]2[C@]1(C)CC[C@H]1[C@]23C=C[C@]2(C[C@@H](O)CC[C@]12C)OO3` [EP, ergosterol peroxide], the EC50 with SUM-149 came to 6 µM; in the series with SUM-149 cells [1] (SUM149, 24 h), 34 µM; in the series on SUM-149 cells [1] (SUM149, 72 h) it was 20 µM; with MDA-MB-231 TNBC cells, 19 µM. In the series on SUM-149 cells [1] (72 h), the “concentration at which SUM-149 cell viability is significantly reduced” value came out at 8 µM. In addition, the “increase in percentage of cells in G1 phase” value in the series on SUM-149 cells [2] is approximately 20%. In the series on SUM-149 cells [2], the “reduction of the percentage of cells in G2/M” value is recorded as 10%. In addition, the “decrease of live cells (Annexin−, 7AAD−)” value in the series on SUM-149 cells [3] is given as approximately 15%. Moreover, the “percentage of cells in early apoptosis (Annexin+, 7AAD−)” value with SUM-149 cells [3] was “significantly increased”. Moreover, the “number and size of colonies formed” value in the series on SUM-149 cells [4] was “concentration-dependent decrease”. For the same molecule, the “de novo protein synthesis inhibition” value in [5] is on record as “do not inhibit de novo protein synthesis”. Moreover, the “ROS formation, fold” value with MDA-MB-231 cells was determined as 2 fold; in the series on SUM-149 cells [6] (EP 20 μM, vs vehicle) it was 4 fold. The “reduction in ROS formation in the presence of NAC” value in the series with SUM-149 cells [6] (NAC 500 μM) is listed as “about 20%”. Also, the “solubility properties (in words)” value in the series “Solubility observations” is reported as “poor”. The “reaction of the endoperoxide with NAC” value in series [7] is “no observable olefin migration or opening of the endoperoxide was detected”.

Values taken from patent publication US12263177B2, “Biologically active ganoderma lucidum compounds and synthesis of anticancer derivatives; ergosterol peroxide probes for cellular localization” (priority 2019, dated 2025).
